Here are results for 24 molecules from patent US4851411A, “5-monoaryl as.-triazin-3-ones substituted in 2-position, and their use as medicaments” (Pierre Fabre Medicament, priority 1986, dated 1989).

This data set can be described thus: Solubility. It is filed as physicochemical.
Setting [1] is: aqueous dilute acids, in the hot.

Structures can show the parent of a compound that is named as a salt.

With `CC(=O)Cn1ncc(-c2ccc(O)cc2)nc1=O` [Example 2, 2-N-acetonyl 3-oxo 5-p-hydroxyphenyl as.-triazine], the solubility in benzene result is reported as “Insoluble” and the solubility in ether result was “Insoluble”. Further, the “solubility in alcohols in the hot” value (in the hot) is on record as “Soluble in the hot, recrystallizes in the cold”. Further, the solubility in chloroform result (chloroform) is given as “Insoluble”. Also, the “solubility in dilute aqueous bases” value (dilute aqueous bases) is given as “soluble”. Further, the solubility in water result (water) is on record as “rather soluble”.
For `CC(=O)Cn1ncc(-c2ccc(OC3CCOC3=O)cc2)nc1=O` (stereo not shown) [Example 3, 2-acetonyl 3-oxo 5-p-(alphaoxy γ butryolactone)phenyl as.-triazine], the solubility in benzene result is given as “Insoluble” and the solubility in ether result is on record as “Insoluble”. Also, the solubility in chloroform entry (chloroform) is listed as “Insoluble”. Moreover, the solubility in water entry (water) was “Insoluble”.
Take `COc1ccc(-c2cnn(CC(=O)C(C)C)c(=O)n2)cc1` [Example 5, 2-(3'-methyl 2'-one butyl) 3-oxo 5-p-methoxyphenyl as.-triazine]: the solubility in benzene entry is recorded as “poorly soluble” and the solubility in ether result is recorded as “poorly soluble”. Further, the solubility in chloroform result (chloroform) is “Soluble”. The “solubility in methylene chloride” value (methylene chloride) is listed as “Soluble”. For the same molecule, the solubility in water entry (water) was “Insoluble”.
As to `CC(=O)Cn1ncc(-c2ccc(C)cc2)nc1=O` [Example 6, 2-acetonyl 3-oxo 5-p-methylphenyl as.-triazine], the solubility in ether result is on record as “insoluble”. Also, the solubility in chloroform result (chloroform) is listed as “Soluble”. In addition, the “solubility in methylene chloride” value (methylene chloride) is on record as “Soluble”. For the same molecule, the solubility in water entry (water) is listed as “insoluble”.
Take `CC(=O)Cn1ncc(-c2ccccc2)nc1=O` [Example 7, 2-acetonyl 3-oxo 5-phenyl as.-triazine]: the solubility in ether result is listed as “insoluble”. Where the note is “chloroform”, the solubility in chloroform entry is on record as “Soluble”. Also, the “solubility in methylene chloride” value (methylene chloride) is “Soluble”. Further, the solubility in water result (water) is recorded as “insoluble”.
Regarding `COc1ccc(-c2cnn(CCN3CCN(c4cccc(Cl)c4)CC3)c(=O)n2)cc1` [Example 10, 2 β ethyl(metachlorophenyl)piperazine 3-oxo 5-p-methoxyphenyl as.-triazine], the “solubility in aqueous dilute acids in the hot” value under setting [1] is reported as “Soluble”. Moreover, the solubility in chloroform entry (chloroform) is “Poorly soluble”. Besides, under “methylene chloride”, the “solubility in methylene chloride” value is “Poorly soluble”.
Turning to `CC(=O)c1ccc(N2CCN(CCCn3ncc(-c4ccc(C)cc4)nc3=O)CC2)cc1` [Example 11, 2-γ propyl p-piperazinoacetophenone 3-oxo 5-methylphenyl as.-triazine], the solubility in alcohols entry is listed as “insoluble” and the solubility in ether entry is on record as “insoluble”. Moreover, for the setting “in the hot”, the “solubility in alcohols in the hot” value is “Soluble”. The “solubility in chloroform in the hot” value (chloroform, in the hot) is “Soluble”. The “solubility in methylene chloride in the hot” value (methylene chloride, in the hot) is on record as “Soluble”. Also, for the setting “water”, the solubility in water result is given as “insoluble”.
For the molecule `COc1ccc(C2C=NN(CCCN3CCN(c4cccc(Cl)c4)CC3)C(=O)N2)cc1` (stereo not shown) [Example 12, 2-N-γ propyl(m-chlorophenylpiperazine) 3-oxo 4,5-dihydro 5-p-methoxyphenyl as.-triazine], the solubility in ether result is “insoluble”. Also, the “solubility in alcohols in the hot” value (in the hot) is given as “Soluble”. Also, the “solubility in aqueous dilute acids in the hot” value under setting [1] is “Soluble”. For the same molecule, where the note is “chloroform”, the solubility in chloroform result is given as “Soluble”. In addition, the “solubility in methylene chloride” value (methylene chloride) is listed as “Soluble”. The solubility in water result (water) is “insoluble”.
Turning to `Cc1ccc(-c2cnn(CCCCN3CCN(c4cccc(Cl)c4)CC3)c(=O)n2)cc1` [Example 13, 2-N-δ butyl (m-chlorophenyl piperazine) 3-oxo 5-p-methylphenyl as.-triazine], the solubility in ether entry was “insoluble”. Besides, the “solubility in alcohols in the hot” value (in the hot) is on record as “Soluble”. Also, the “solubility in aqueous dilute acids in the hot” value under setting [1] is given as “Soluble”. The solubility in chloroform result (chloroform) is on record as “Soluble”. Further, the “solubility in methylene chloride” value (methylene chloride) was “Soluble”. Further, under “water”, the solubility in water result is “insoluble”.
Regarding `Cc1ccc(-c2cnn(CCCN3CCN(c4cccc(Cl)c4)CC3)c(=O)n2)cc1` [Example 14, 2-γ(m-chlorophenylpiperazine)-propyl 3-oxo 5-p-methylphenyl as.-triazine hydrochloride], the solubility in ether result is “insoluble”. Moreover, the solubility in chloroform result (chloroform) was “Soluble”. Besides, the “solubility in methylene chloride” value (methylene chloride) is listed as “Soluble”. In addition, the solubility in water result (water) is reported as “insoluble”.
Turning to `COc1ccc(-c2cnn(CCCCCN3CCN(c4cccc(Cl)c4)CC3)c(=O)n2)cc1` [Example 15, 2-N (ε-pentyl m-chlorophenyl piperazine) 3-oxo 5-p-methoxyphenyl as.-triazine], the solubility in ether result is “insoluble”. Further, the solubility in chloroform entry (chloroform) is “Soluble”. Further, under “methylene chloride”, the “solubility in methylene chloride” value was “Soluble”. Further, the solubility in water result (water) is listed as “insoluble”.
Turning to `COc1ccc(-c2cnn(CCN3CCN(c4cccc(C(F)(F)F)c4)CC3)c(=O)n2)cc1` [Example 16, 2-β ethyl (m-trifluoromethylphenyl) piperazine 3-oxo 5-p-methoxyphenylas.-triazine], the solubility in benzene entry is given as “poorly soluble” and the solubility in ether entry is on record as “insoluble”. The solubility in chloroform result (chloroform) is “Soluble”. Moreover, the “solubility in methylene chloride” value (methylene chloride) is listed as “Soluble”. Further, the solubility in water entry (water) is given as “insoluble”.
On to `COc1ccc(-c2cnn(CCCN(C)C)c(=O)n2)cc1` [Example 17, 2-γ dimethylaminopropyl 3-oxo 5-p-methoxyphenyl as.-triazine], for which the solubility in alcohols entry is on record as “Soluble”, the solubility in benzene result was “Soluble” and the solubility in ether entry is given as “insoluble”. For the same molecule, the “solubility in aqueous dilute acids” value (aqueous dilute acids) is “Soluble”. For the same molecule, the solubility in chloroform entry (chloroform) is “Soluble”. The “solubility in methylene chloride” value (methylene chloride) is on record as “Soluble”. For the same molecule, for the setting “water”, the solubility in water result was “insoluble”.
In the case of `COc1ccc(-c2cnn(C(CCO)C(=O)O)c(=O)n2)cc1` (stereo not shown) [Example 18, 2-[3-(3-carboxy 1-propanol)] 3-oxo 5-p-methoxyphenyl as.-triazine], the solubility in alcohols entry was “rather soluble”. For the same molecule, the solubility in chloroform result (chloroform) is “Poorly soluble”. Further, the “solubility in methylene chloride” value (methylene chloride) is given as “Poorly soluble”. Further, the solubility in water result (water) is “insoluble”.
Turning to `Cc1ccc(-c2cnn(C(CCO)C(=O)O)c(=O)n2)cc1` (stereo not shown) [Example 19, 2-[3-(3-carboxy 1-propanol)] 3-oxo 5-p-methylphenyl as.-triazine], the solubility in alcohols entry was “Poorly soluble”, the solubility in benzene result was “Poorly soluble” and the solubility in ether entry is recorded as “insoluble”. The solubility in chloroform result (chloroform) was “Poorly soluble”. In addition, the solubility in water entry (water) is on record as “insoluble”.
For the molecule `Cc1ccc(-c2cnn(C3CCOC3=O)c(=O)n2)cc1` (stereo not shown) [Example 20, 2-butyrolactone 3-oxo 5-p-methylphenyl as.-triazine], the solubility in benzene entry is given as “poorly soluble” and the solubility in ether result is recorded as “poorly soluble”. Also, the solubility in chloroform result (chloroform) is given as “Soluble”. The “solubility in methylene chloride” value (methylene chloride) is listed as “Soluble”. Besides, under “water”, the solubility in water result is recorded as “insoluble”.
As for `CCOc1ccc(-c2cnn(CC(C)=O)c(=O)n2)cc1` [Example 24, 2-acetonyl 3-oxo 5-p-ethoxyphenyl as.-triazine], the “solubility in chlorinated solvents” value is “Soluble” and the solubility in ether result is on record as “insoluble”. Further, the “solubility in alcohols in the hot” value (in the hot) is recorded as “soluble”. For the same molecule, under “water”, the solubility in water entry was “insoluble”.
With `COc1ccc(-c2cnn(CC(C)=O)c(=O)n2)c(OC)c1` [Example 25, 2-acetonyl 3-oxo 5-(2',4'-dimethoxy)phenyl as.-triazine], the solubility in ether entry was “insoluble”. In addition, where the note is “chloroform”, the solubility in chloroform entry was “Soluble”. Besides, the “solubility in methylene chloride” value (methylene chloride) was “Soluble”. The solubility in water result (water) is on record as “insoluble”.
Turning to `CC(=O)Cn1ncc(-c2cccs2)nc1=O` [Example 26, 2-acetonyl 3-oxo 5-γ-thienyl as.-triazine], the “solubility in chlorinated solvents” value is “Soluble” and the solubility in ether entry is “insoluble”. Also, the solubility in water entry (water) is listed as “insoluble”.
As to `CCOC(=O)CC(C(=O)OCC)n1ncc(-c2ccc(OC)cc2)nc1=O` (stereo not shown) [Example 27, 2-diethoxysuccinyl 3-oxo 5-p-methoxyphenyl as.-triazine], the solubility in alcohols result is “Soluble” and the solubility in benzene entry is recorded as “Soluble”. Besides, under “chloroform”, the solubility in chloroform result is “Soluble”. The solubility in water entry (water) is listed as “insoluble”.
Consider `COc1ccc(-c2cnn(CCCCCN3CCC(O)CC3)c(=O)n2)cc1` [Example 28, N 2-[ε-pentyl (4-hydroxypiperidine)] 3-oxo 5-p-methoxyphenyl as.-triazine], for which the solubility in alcohols entry was “Soluble”. The solubility in chloroform result (chloroform) is on record as “Soluble”. In addition, the solubility in water result (water) is listed as “insoluble”.
Regarding `Cc1ccc(C2C=NN(C(c3ccccc3)C(O)c3ccccc3)C(=O)N2)cc1` (stereo not drawn) [Example 29, N-2[α(1,2-diphenylethan 1-ol)] 3-oxo 4,5-dihydro 5-p-methylphenyl as.-triazine], the solubility in ether entry was “insoluble”. For the same molecule, where the note is “in the hot”, the “solubility in alcohols in the hot” value is on record as “Soluble”. Where the note is “chloroform”, the solubility in chloroform entry is reported as “insoluble”. Further, the solubility in water entry (water) is listed as “insoluble”.
On to `COc1ccc(-c2cnn(C(c3ccccc3)c3ccccc3)c(=O)n2)cc1` [Example 30, 2-N-diphenylmethyl 3-oxo 5-p-methoxyphenyl as.-triazine], for which the “solubility in alcohols in the hot” value (in the hot) is given as “Soluble”. For the same molecule, for the setting “chloroform”, the solubility in chloroform entry was “insoluble”. Further, the “solubility in methylene chloride” value (methylene chloride) is “Soluble”. Further, the solubility in water entry (water) is on record as “insoluble”.
Turning to `COc1ccc(-c2cnn(CCO)c(=O)n2)cc1` [Example 31, 2-ethanol 3-oxo 5-p-methoxyphenyl as.-triazine], the solubility in benzene result is reported as “insoluble” and the solubility in ether result was “insoluble”. In addition, under “chloroform”, the solubility in chloroform entry is on record as “poorly soluble”. The “solubility in methylene chloride” value (methylene chloride) is “rather soluble”. The “solubility in water in the hot” value (water, in the hot) is on record as “Soluble”.
